Measurements as given in patent US20090186009A1, “SOLID MATTER CONTAINING COENZYME Q” (Kaneka Corporation, priority 2006, published 2009).

Assay: Crystallization rate of coenzyme Q10 in granule by differential scanning calorimetric analysis
Format: physicochemical
Settings: DSC, calculated from melting heat (ΔH); 20° C.→80° C. (5° C./min)→−50° C.
Description: Calorimetric analysis of coenzyme Q10 granules obtained in Example 1 and Example 4 and oxidized coenzyme Q10 powder (Kaneka-coenzyme Q10) used as the starting material in Preparation Examples 1-3 by a differential scanning calorimetric analyzer (manufactured by SII; EXSTAR6000 DSC6220) was performed under the following conditions. The crystallization rate was calculated from the measurement value of the melting heat (ΔH).
Analysis conditions; 20° C.→80° C. (5° C./min)→−50° C. (−5° C./min)

COC1=C(OC)C(=O)C(C/C=C(\C)CC/C=C(\C)CC/C=C(\C)CC/C=C(\C)CC/C=C(\C)CC/C=C(\C)CC/C=C(\C)CC/C=C(\C)CC/C=C(\C)CCC=C(C)C)=C(C)C1=O [Kaneka coenzyme Q10, oxidized coenzyme Q10]
crystallinity degree: 100%
